Reference: article PMC11665553, “12-Lipoxygenase inhibition delays onset of autoimmune diabetes in human gene replacement mice” (JCI Insight, 2024)
Where “and” joins values, the source holds several entries; their conditions need not be identical. Equal values may be shown once.

Experiments:
[1] = system: B6.hALOX12 mice; assay: Multiple low-dose STZ-induced diabetes in B6.hALOX12 mice (random-fed blood glucose, GTT, β cell mass); details: for Blood glucose (Fig 1H) / GTT blood glucose (Fig 1I): individual animals; for Random-fed blood glucose (Fig 1E) / GTT blood glucose (Fig 1F): hAlox12 mice, listed as ML355, 30 mg/kg; for Random-fed blood glucose (Fig 1E): 30 mg/kg i.p. + STZ
Method: Intraperitoneal GTTs (IPGTTs) were performed in mice after overnight fasting (16 hours). Mice were i.p. injected with glucose at a dose of 1 or 2 g/kg body weight and blood glucose levels were measured at specific time points: 0, 10, 20, 30, 60, 90, and 120 minutes after glucose injection using an AlphaTrak glucometer.
Random-fed glucose levels were measured by tail snip using a glucometer (AlphaTrak), and mice were followed for 20 days after STZ injections. IPGTT was performed on day 4 after STZ treatments after overnight fasting.

[2] = system: NOD.hALOX12 mice; assay: NanoString spatial proteomics of insulitic and insulin-positive areas in NOD.hALOX12 mice; format: in vivo, mouse; details: Insulitic Area; Fig 2F source data, individual values
Source text: To specifically interrogate the nature of immune cells within the insulitic region, we performed spatial tissue-based proteomics (NanoString). We used insulin immunostaining and nuclei staining to identify β cells and the surrounding insulitic regions. Prevalidated antibodies in the GeoMx mouse immune panel were used to probe for immune cell subtypes in the peri-islet insulitic region and within the islet. […] This reduction in myeloid cell populations was accompanied by a decrease in T and B cells populations, including CD4^+, CD3^+, CD8^+, and CD19^+ cells (Figure 2F and Supplemental Figure 2, A and B). […] Enhanced PD-L1/PD-1 interactions shift T cells to less aggressive, more regulatory phenotypes ([21]).
Paraffin embedded pancreata were used for NanoString spatial proteomics analysis. Tissues were stained with morphology markers: AF-647–conjugated insulin (Cell Signaling Technology, 9008s; 1:400) and nuclei marker (SYTO13). Tissues were hybridized using a pre-validated mouse GeoMx Immune cell panel (NanoString, GMX-PROCONCT-MICP) comprising the following markers: PD-1, CD11c, CD8a, PanCk, MHC II, CD19, CTLA4, SMA, CD11b, CD3e, fibronectin, Ki-67, CD4, GZMB, F4/80, CD45, PD-L1; housekeeping genes: histone H3, S6, GAPDH; and IgG antibodies: Rb IgG, Rat IgG2a, and Rat IgG2b for background subtraction. All markers were conjugated to unique UV-photocleavable oligos for indexing. At least 5 or 6 islets with insulitis were chosen as regions of interest (ROIs) per mouse based on the morphology markers (insulin and nuclei). The ROIs were segmented into insulitic region and insulin^+ region for each islet. Oligonucleotides from the segmented ROIs were photocleaved, collected in a 96-well plate, and reads were counted using nCounter (NanoString). Scaling was performed to normalize for any differences in tissue surface area and depth. After scaling, reads were normalized to housekeeping markers and background was subtracted using IgG markers.

[3] = B6.hALOX12 mice, 30 mg/kg p.o., STZ

COc1cccc(CNc2ccc(S(=O)(=O)Nc3nc4ccccc4s3)cc2)c1O [VLX-1005]
Glucose tolerance vs vehicle [1, 3]: significantly improved glucose tolerance
Random-fed blood glucose levels vs vehicle [1, 3]: lower random-fed blood glucose levels
β cell mass at end of study vs vehicle [1, 3]: greater β cell mass
GTT AUC (Fig 1J) ([1]; B6.hALOX12 mice, 30 mg/kg p.o., day 4 after STZ, individual mice, 30 mg/kg): 38575 and 27605 and 37915 and 32740 and 28655 and 39615
β cell mass (Fig 1K) ([1]; B6.hALOX12 mice, 30 mg/kg p.o., day 26 after STZ, individual mice, listed as VLX, 30 mg/kg): 0.4287 and 0.8456 and 0.5623 and 0.6492 and 1.024
Glucose tolerance (GTT) ([1]; B6.hALOX12 vs WT C57BL/6J mice, both 30 mg/kg i.p., after STZ): improved glucose tolerance
Blood glucose (Fig 1H) ([1]; day 1): 293 and 265 and 377 and 281 and 389 and 367
Blood glucose (Fig 1H) ([1]; day 4): 209 and 312 and 289 and 205 and 311 and 272
Blood glucose (Fig 1H) ([1]; day 8): 346 and 273 and 297 and 307 and 219 and 303
Blood glucose (Fig 1H) ([1]; day 11): 435 and 460 and 385 and 378 and 441 and 298
Blood glucose (Fig 1H) ([1]; day 16): 427 and 543 and 470 and 301 and 405 and 380
Blood glucose (Fig 1H) ([1]; day 18): 571 and 573 and 426 and 374 and 417 and 346
Blood glucose (Fig 1H) ([1]; day 23): 474 and 543 and 550 and 331 and 533 and 356
Blood glucose (Fig 1H) ([1]; day 25): 630 and 501 and 416 and 359 and 457 and 307
Blood glucose (Fig 1H) ([1]; day 28): 426 and 551 and 530 and 363 and 483 and 470
Blood glucose (Fig 1H) ([1]; day -3): 296 and 262 and 381 and 299 and 367 and 314
GTT AUC (Fig 1G) ([1]; hALOX12 mice, 30 mg/kg i.p., day 4 after STZ, individual mice, 30 mg/kg): 24945 and 29635 and 27915 and 36735
Random-fed blood glucose (Fig 1E) ([1]; day 0, individual mice): 184 and 194 and 153 and 159
Random-fed blood glucose (Fig 1E) ([1]; day 5, individual mice): 174 and 179 and 181 and 131
Random-fed blood glucose (Fig 1E) ([1]; day 10, individual mice): 195 and 201 and 210 and 180
Random-fed blood glucose (Fig 1E) ([1]; day 15, individual mice): 167 (2×) and 210 and 214
Random-fed blood glucose (Fig 1E) ([1]; day 22, individual mice): 193 and 223 and 208 and 188
Random-fed blood glucose (Fig 1E) ([1]; day 27, individual mice): 216 and 217 and 226 and 193
Random-fed blood glucose (Fig 1E) ([1]; day -5, individual mice): 194 and 201 and 167 and 185
GTT blood glucose (Fig 1F) ([1]; 30 mg/kg i.p., day 4 after STZ, 0 min after glucose, individual mice): 184 and 132 and 122 and 134
GTT blood glucose (Fig 1F) ([1]; 30 mg/kg i.p., day 4 after STZ, 10 min after glucose, individual mice): 401 and 364 and 354 and 369
GTT blood glucose (Fig 1F) ([1]; 30 mg/kg i.p., day 4 after STZ, 20 min after glucose, individual mice): 610 and 557 and 487 and 467
GTT blood glucose (Fig 1F) ([1]; 30 mg/kg i.p., day 4 after STZ, 30 min after glucose, individual mice): 512 and 597 and 398 and 458
GTT blood glucose (Fig 1F) ([1]; 30 mg/kg i.p., day 4 after STZ, 60 min after glucose, individual mice): 361 and 446 and 310 and 375
GTT blood glucose (Fig 1F) ([1]; 30 mg/kg i.p., day 4 after STZ, 90 min after glucose, individual mice): 221 and 387 and 284 and 306
GTT blood glucose (Fig 1F) ([1]; 30 mg/kg i.p., day 4 after STZ, 120 min after glucose, individual mice): 159 and 209 and 223 and 281
Protection from STZ-induced diabetes ([1]; male B6.hALOX12 mice, 30 mg/kg i.p. daily peri-STZ): complete protection from STZ-induced diabetes
GTT blood glucose (Fig 1I) ([1]; time 0): 403 and 326 and 234 and 245 and 279 and 370
GTT blood glucose (Fig 1I) ([1]; time 10): 585 and 462 (2×) and 543 and 359 and 482
GTT blood glucose (Fig 1I) ([1]; time 20): 636 and 668 and 606 and 558 and 520 and 577
GTT blood glucose (Fig 1I) ([1]; time 30): 577 and 520 and 660 and 662 and 560 and 646
GTT blood glucose (Fig 1I) ([1]; time 60): 488 and 436 and 530 and 581 and 420 and 589
GTT blood glucose (Fig 1I) ([1]; time 90): 345 and 329 and 461 and 457 and 365 and 408
GTT blood glucose (Fig 1I) ([1]; time 120): 239 and 265 and 375 and 360 and 216 and 283
CD11b [2]: 5.147 and 5.277 and 5.327 and 5.94 and 5.07 and 5.565 and 5.634 and 5.068 and 4.855 and 6.029
CD11c [2]: 2.876 and 1.502 and 2.598 and 4.232 and 2.537 and 2.93 and 3.146 and 2.8254 and 2.641 and 4.743
